{
  "source": "patent US10517965B2",
  "about": "“Bioorthogonal turn-on probes” (The General Hospital Corporation, priority 2013, dated 2019)",
  "key": {"[1]": {"assay": "Peak excitation/emission wavelengths and extinction coefficient in PBS", "assay_type": "physicochemical", "conditions": "for ε: at peak excitation wavelength in PBS, pH 7.4, in M-1cm-1 (unit assumed); for Peak Em Wavelength: emission; for Peak Ex Wavelength: excitation", "method": "(§1) Stock solutions of the freshly-purified tetrazine dyes were prepared in MeCN and stored in the dark at 4° C. during experiments. For fluorescence measurements, the probes diluted into 2 mL or 3 mL of phosphate buffered saline (PBS), pH 7.4 (Corning, cellgro) in a standard 10 mm quartz cuvette. Working at peak excitation and emission wavelengths for each probe, data were collected as a continuous time series to enable accurate measurement of the baseline intensity values and optimize signal to noise. Fluorescence experiments were conducted at a range of dye concentrations spanning 100 nM-750 nM, with 500 nM being a typical working concentration. The time to peak turn on ratio (but not the final magnitude) is a function of the added TCOc (see Example 25) concentration; for the time courses presented herein, 10 μM TCOc was used. Measurements of solvent and pre-activation emission intensity for baseline values were collected serially over at least 30 seconds, prior to addition of TCOc to initiate the fluorogenic reaction. After addition of TCOc (typically a 20-fold excess, as above), the fluorescence emission intensity was monitored until a plateau was reached. Activation ratios were calculated from the peak emission intensity of the dihydropyridazine product and the corresponding baseline intensity over background. Data were normalized to set the initial background fluorescence of the HELIOS probe to one unit over background, as plotted in FIG. 9 in the main text.\n(§2) Microscope: Multichannel images were collected on an Olympus Fluoview FV1000 confocal laser microscope. Coumarin probes were excited with a 405 nm laser, with alternate excitation sources used as relevant for reference channels, paired with appropriate emission filter sets. Cell culture: A-431 cells (ATCC CRL-1555) and COS-1 cells (ATCC CRL-1650) were cultivated in Dulbecco's Modified Eagle's Medium (DMEM), supplemented with 10% fetal bovine serum and grown in standard culture conditions in 10 cm dishes. OVCA-429 cells were cultivated in RPMI-1640 supplemented with 10% fetal bovine serum under standard culture conditions. For imaging experiments cells were plated on Millicell EZ slides (EMD Millipore, Inc, Billerica, Mass.). Antibody reagents: Monoclonal antibody-TCO conjugates were prepared by incubation of commercially available monoclonal antibodies TCO-PEG4-NHS (Click Chemistry Tools, Scottsdale, Ariz.). Anti EGFR (Cetuximab, Imclone). Anti cytochrome c oxidase (COXIV, Cell signaling Technology, #4844, Danvers, Mass.). An aliquot of antibody in the manufacturer-supplied storage solution was buffer exchanged into PBS with 10 mM sodium bicarbonate, pH 8.0, on a 40K ZebaSpin desalting column (0.5 mL, Thermo Fisher Scientific, Rockford, Ill.). To this solution was added 20 equivalents of TCO-PEG4-NHS; the mixture was allowed to react at 25° C. for 30 minutes, with continuous shaking. The reaction mix was loaded onto a 40K ZebaSpin column to remove organic solvent and small molecule fractions; this eluate was loaded onto a second 40K ZebaSpin column to ensure comprehensive removal of any excess TCO. EGFR Imaging: Fixed A431 cells were prepared by treatment with 4% paraformaldehyde solution (10 min, room temperature), followed by 3 washes with PBS. Fixed cells were stored at 4° C. until the time of imaging, when they were incubated for 20 minutes with 20 μg/mL cetuximab-TCO, then rinsed three times with PBS. For optimal image quality, HELIOS 370H probe must be purified on the day of imaging by reversed phase HPLC-MS. The concentration of stock solutions in PBS were calculated by absorbance spectrometry, based on the measured extinction coefficient of 19000 M^−1 cm^−1. Prior to imaging, the purified stock solutions were subjected to turn-on testing, verifying a fluorogenic turn-on ratio of >1000-fold for HELIOS 370H. For imaging experiments, the acetonitrile stocks were diluted into PBS to yield a 100 nM solution. […]"}, "[2]": {"assay": "Quantum yield determination, quinine sulfate reference", "assay_type": "physicochemical", "conditions": "dihydropyridazine product after complete reaction with TCOc in PBS pH 7.4; quinine sulfate standard (Φ = 0.546)", "source_text": "Quantum yield determinations: quinine sulfate dihydrate (Fluorescence Reference Standard grade, AnaSpec, Inc) in 0.5 M H2SO4 was used as a reference, with an excitation wavelength of 370 nm; a value of 0.546 was used for the reference quantum yield (Eaton, D. F., Pure and Applied Chemistry, 1988 60(7), 1107-1114). Calculations were made according to the methods described by Crosby and Demas (Chemical Reviews, 1971, 75(8), 991-1024)."}, "[3]": {"assay": "Fluorogenic characterization of HELIOS probes on reaction with TCOc", "assay_type": "physicochemical", "conditions": "for peak turn-on ratio upon reaction with TCOc: PBS; for Fluorescence Enhancement: fluorogenic turn-on ratio of the Me-tetrazines upon reaction with TCOc", "method": "As described above, the fluorescence purity of all HELIOS compounds was verified by LCMS prior to quantitative activation experiments, for which a fresh aliquot of the fluorophore collected from the analytical HPLC elution was used. Exceptionally pure material is required to obtain the peak measured turn-on ratios, as the presence of trace bright contaminants limits the maximum observable ratio.\nas §1"}, "[4]": {"tested_on": "epidermal growth factor receptor (EGFR) on A431 cells", "assay": "No-wash fluorogenic imaging of EGFR on A431 cells after cetuximab-TCO", "assay_type": "cell-based, human", "source_text": "as §2, with “For optimal image quality, HELIOS 370H probe must be purified on the day of imaging by reversed phase HPLC-MS.” left out, “cm^−1.” for “cm^−1. Prior to imaging, the purified stock solutions were subjected to turn-on testing, verifying a fluorogenic turn-on ratio of >1000-fold for HELIOS 370H. For imaging experiments, the acetonitrile stocks were diluted into PBS to yield a 100 nM solution.”"}, "[5]": {"tested_on": "mitochondria of OVCA-429 cells", "assay": "Mitochondria imaging of OVCA-429 cells after anti-COX IV-TCO", "assay_type": "cell-based", "source_text": "as §2, with “For optimal image quality, HELIOS 370H probe must be purified on the day of imaging by reversed phase HPLC-MS.” left out, “cm^−1.” for “cm^−1. Prior to imaging, the purified stock solutions were subjected to turn-on testing, verifying a fluorogenic turn-on ratio of >1000-fold for HELIOS 370H. For imaging experiments, the acetonitrile stocks were diluted into PBS to yield a 100 nM solution.”"}, "[6]": {"assay": "Solubility in aqueous media", "assay_type": "physicochemical", "conditions": "PBS, micromolar concentrations"}, "[7]": {"assay": "Solvent polarity effects on fluorescence emission of the native probe", "assay_type": "physicochemical", "conditions": "PBS pH 7.4, acetonitrile, toluene", "method": "FIG. 5 provides the absorption and fluorescence emission spectra of 4b in toluene (dielectric constant 2.4) and acetonitrile (dielectric constant 37.5). Samples were prepared by matched dilutions from a concentrated stock solution of 4b. For the fluorescence spectra, the excitation wavelength was offset from peak absorbance in that solvent by 10 nm; in toluene, the excitation wavelength was 496 nm; in acetonitrile,\nFluorescence emission spectra of HELIOS 400Me in PBS (pH 7.4), acetonitrile (dielectric constant 37.5), and toluene (dielectric constant 2.4) was measured (see FIG. 10). Emission spectra are the mean of 2 or 3 scans and the dashed lines represent +/−SEM. Instrument settings were adjusted to optimize sensitivity given the minimal fluorescence of the native HELIOS probe, and samples were prepared by matched dilution of a concentrated stock solution of HELIOS 400Me into the respective solvents. […] J. Meskers, E. H. A. Beckers, S. Chopin, R. A. J. Janssen, J. Phys. Chem. A 2006, 110, 12363]."}},
  "data": [
    {"smiles": "Cc1nnc(-c2cccc(-c3c(C)c4ccc(N)cc4oc3=O)c2)nn1", "note": "[HELIOS 347Me]", "values": [
      {"measurement": "ε", "setting": "[1]", "result": "18,500"},
      {"measurement": "Peak Em Wavelength", "setting": "[1]", "result": 455, "unit": "nm"},
      {"measurement": "Peak Ex Wavelength", "setting": "[1]", "result": 347, "unit": "nm"},
      {"measurement": "Φ w/TCOc", "setting": "[2]", "result": 0.29},
      {"measurement": "peak turn-on ratio upon reaction with TCOc", "setting": "[3]", "result": "2,500 fold"},
      {"measurement": "Fluorescence Enhancement", "setting": "[3]", "result": "2,500-fold"}
    ]},
    {"smiles": "Cc1c(-c2cccc(-c3nncnn3)c2)c(=O)oc2c(F)c(O)c(F)cc12", "note": "[HELIOS 370H]", "values": [
      {"measurement": "staining pattern", "setting": "[4]; 100 nM in PBS, no wash", "result": "bright, membrane specific staining"},
      {"measurement": "time until specific staining evident", "setting": "[4]; 100 nM probe in PBS, fixed A431 cells, cetuximab-TCO", "result": "≤ 10", "unit": "s"},
      {"measurement": "nonspecific binding", "setting": "[4]; after extended incubation", "result": "no nonspecific binding"},
      {"measurement": "measured extinction coefficient", "setting": "[1]; stock solutions in PBS", "result": 19000, "unit": "M⁻¹ cm⁻¹"},
      {"measurement": "fluorogenic turn-on ratio of purified stock prior to imaging", "setting": "[3]; turn-on testing of freshly purified stock solutions", "result": "> 1000", "unit": "fold"}
    ]},
    {"smiles": "Cc1nnc(-c2cccc(-c3c(C)c4cc(F)c(O)c(F)c4oc3=O)c2)nn1", "note": "[HELIOS 370Me]", "values": [
      {"measurement": "ε", "setting": "[1]", "result": "19,000"},
      {"measurement": "Peak Em Wavelength", "setting": "[1]", "result": 463, "unit": "nm"},
      {"measurement": "Peak Ex Wavelength", "setting": "[1]", "result": 370, "unit": "nm"},
      {"measurement": "Φ w/TCOc", "setting": "[2]", "result": 0.49},
      {"measurement": "peak turn-on ratio upon reaction with TCOc", "setting": "[3]", "result": "2,900 fold"},
      {"measurement": "Fluorescence Enhancement", "setting": "[3]", "result": "2,900-fold"}
    ]},
    {"smiles": "Cc1c(-c2cccc(-c3nncnn3)c2)c(=O)oc2cc3c(cc12)CCCN3", "note": "[HELIOS 388H]", "values": [
      {"measurement": "time until mitochondrial labeling evident", "setting": "[5]; 100 nM, fixed and permeabilized OVCA-429 cells", "result": "≤ 2", "unit": "min"},
      {"measurement": "colocalization with mitochondria-specific RFP", "setting": "[5]; OVCA-429 cells expressing RFP", "result": "good colocalization"},
      {"measurement": "target to background ratio over time", "setting": "[5]; serial images up to an hour from dye addition", "result": "stable target to background ratios"}
    ]},
    {"smiles": "Cc1nnc(-c2cccc(-c3c(C)c4cc5c(cc4oc3=O)NCCC5)c2)nn1", "note": "[HELIOS 388Me]", "values": [
      {"measurement": "ε", "setting": "[1]", "result": "20,000"},
      {"measurement": "Peak Em Wavelength", "setting": "[1]", "result": 482, "unit": "nm"},
      {"measurement": "Peak Ex Wavelength", "setting": "[1]", "result": 388, "unit": "nm"},
      {"measurement": "Φ w/TCOc", "setting": "[2]", "result": 0.38},
      {"measurement": "peak turn-on ratio upon reaction with TCOc", "setting": "[3]", "result": "11,000 fold"},
      {"measurement": "Fluorescence Enhancement", "setting": "[3]", "result": "11,000-fold"}
    ]},
    {"smiles": "Cc1nnc(-c2cccc(-c3c(C)c4cc5c6c(c4oc3=O)CCCN6CCC5)c2)nn1", "note": "[HELIOS 400Me]", "values": [
      {"measurement": "Solubility in phosphate buffered saline", "setting": "[6]", "result": "soluble"},
      {"measurement": "dependence of fluorescence emission intensity on solvent polarity", "setting": "[7]", "result": "largely independent of solvent polarity"},
      {"measurement": "peak turn-on ratio upon reaction with TCOc", "setting": "[3]", "result": "4,000 fold"}
    ]},
    {"smiles": "Cc1nnc(-c2ccc(-c3c(C)c4cc5c6c(c4oc3=O)CCCN6CCC5)cc2)nn1", "note": "[HELIOS 400pMe]", "values": [
      {"measurement": "Solubility in phosphate buffered saline", "setting": "[6]", "result": "soluble"},
      {"measurement": "peak turn-on ratio upon reaction with TCOc", "setting": "[3]", "result": "1,000 fold"}
    ]},
    {"smiles": "Cc1c(CC(=O)NCc2ccc(-c3nncnn3)cc2)c(=O)oc2c(F)c(O)c(F)cc12", "note": "[Marina Blue-Tz, reference compound]", "values": [
      {"measurement": "Peak Em Wavelength", "setting": "[1]", "result": 459, "unit": "nm"},
      {"measurement": "Peak Ex Wavelength", "setting": "[1]", "result": 362, "unit": "nm"},
      {"measurement": "peak turn-on ratio upon reaction with TCOc", "setting": "[3]", "result": 60, "unit": "fold"},
      {"measurement": "Fluorescence Enhancement", "setting": "[3]", "result": "60-fold"}
    ]}
  ]
}
